The numbers were not newly measured in publication PMC4492750, “The discovery of a selective and potent A2a agonist with extended lung retention” (Pharmacology Research & Perspectives, 2015), which cites them from elsewhere.

The test system of this data set is heart. Also on record: method as in Macallum et al. [1991]. The note with it: oral, dog study; ref Macallum et al. [1991]; cited from earlier work.

Turning to `OC[C@H]1O[C@@H](n2cnc3c(NCC(c4ccccc4)c4ccccc4)ncnc32)[C@H](O)[C@@H]1O` [DPEA, N-(2,2-diphenylethyl) adenosine], the Myocardial findings result is “myocardial degeneration and necrosis”.
